Entries after “also recorded” stand apart in the source; their conditions may differ.

The values below come from US6265423A, “Aromatic polycyclic retinoid-type derivatives, method for preparing same, and use thereof for making pharmaceutical and cosmetic compositions” (priority 1996, dated 2001).

In assay [1] the test system is RAR-ERcassettes (RARα, RARβ, RARγ). Nature of the assay: Chimerical receptors RAR-ERcassettes, overall profile. Format: cell-based. The source says: (§1) The HeLa cells are co-transfected by a plasmid which codes for a retinoic receptor in which the C domain of bonding to the DNA is substituted by that of the receptor to RE oestrogens, and a plasmid which places the expression of the luciferase under the control of an ERE (Element of Response to Oestrogens). The expressed chimerical receptors are designated as RARα-ERcassette, RARβ-ERcassette, RARγ-ERcassette and RXRα-ERcassette. The A, B, D, E and F regions of the natural receptor are preserved as well as the transcriptional co-operation between the activation domains AF-1 and AF-2. These transitory transfection experiments follow the method of co-precipitation to calcium phosphate. The HeLa cells are co-transfected by […] of plasmid coding for the chimerical receptor, […] of reporter plasmid and […] of expression vector CMV-β-galactosidase used as an internal control of transfection. 24 hours after the transfection, the cells are incubated for 16 hours with the different effectors.
(§2) In this type of chimerical receptor, the C domain of bonding to the DNA of RAR is substituted by that of the receptor to the RE oestrogens. The protein obtained is close to the natural RAR receptor and preserves the transcriptional properties of the AF-1 and AF-2 domains. It modulates the transcription by means of an ERE. This RAR-ERcassette model allows one to observe a transcriptional response to a more physiological ligand.

The subject of assay [2] is A549 human pulmonary cancer cells. Kind of assay: MTT test, proliferation of A549. As to conditions: MTT test. Format: cell-based. On the technique in general: Formazan colour is commonly taken as a measure of viable cells.
The test system of assay [3] is RARE, endogenic RAR and RXR receptors, HRL+N lineage. Kind of assay: HRL+N transactivation (RARE-luciferase, stably transfected HeLa). Format: cell-based. On the procedure: (§3) MCF-7 cells and HeLa are cultivated in DMFM with phenol red to which 5% foetal calf serum is added. The T47-D cells are cultivated in RPMI to which 10% foetal calf serum is added. The experimental tests are carried out in DMEM without phenol red to which foetal calf serum treated with dextran carbon is added at 3%. […] The experiments using the different retinoids are carried out sheltered from the light so as to avoid any isomerisation.
(§4) Certain properties of the retinoids have been determined using more developed cellular models. These models consist of cellular lineages transfected in a stable fashion by recombinant plasmids which place the expression of the gene of the luciferase under the control of different nuclear response elements. […] The tests carried out in duplicate are described below for each of these models.
The cellular lineages HRLN and HRL+N allow one to study the activation of an RARE by endogenic receptors using ligands at physiological concentrations. These lineages derive from HeLa cells transfected in a stable fashion by a reporter gene which places the expression of the gene of the luciferase under the control of a nuclear response element RARE (RARE3 -tk-Luc). The HeLa cells express all the known receptors of the retinoic acid (RARα,β,γ and RXRα,β,γ) with a predominance of RARα and RXRα. The response element RARE used for the HRLN cells corresponds to the sequence of the natural gene of the RARβ receptor (GGTTCAnnnnnAGTTCA). The HRL+N cells comprise the sequence GAGTGAnnnnnCGGTGA.
The HRL+N lineage allows one to visualise a co-activation of the RAR and RXR receptors at the level of the RAR-RXR hetero-dimer.

Assay [4] relates to human mammary tumoral lineage T-47D. Nature of the assay: Clonogenic test (soft agar), growth of cellular colonies. The class given is cell-based. Conditions: T-47D, soft agar. From the text: The human tumour stem cells are the clonogenic cells which are the origin of the neoplasic cells which constitute a given tumour. These tumour stem cells are responsible for the recidivism process observable after surgical resection of the primary tumours and are also responsible for the formation of metastases. […] At the level of a tumour or of a tumoral cellular lineage, these clonogenic stem cells distinguish themselves from other clonogenic cells of the tumour or of the neoplasic cellular lineage being considered, by the fact that they preserve their ability to proliferate in the absence of any solid support.
This technique is suitable for the culturing in vitro of most of the tumours and tumoral cellular lineages of various histological types. In the context of this test, the neoplastic cells are cultured on a semi-solid culture medium "soft agar" made up of a mixture of agar and agarose. On this selective support, only tumoral stem cells survive and proliferate. […] The morphological characteristics and the growth of the cellular colonies are also a function of the histological type of the tumours being considered.
These culture conditions are also called "anchorage-independent" conditions.
The base medium "MEM 25 MM HEPES" (Minimum Essential Medium, Life Technologies, Belgium) contains Eagle salts but no L-glutamine. This medium is well suited to the growth of a range of varied diploid cells or primary mammal cells. To this medium is then added:
The tumoral cells are maintained in culture in 25 cm^2 falcon dishes (Life Technologies, Belgium). They are then trypsinised and individualised. Their rate of viability is determined by coloration with trypan blue (Sigma, Belgium). It must be greater than 90%. In the case where this condition is kept to, a cellular suspension at the desired concentration is prepared in a solution of agar at 0. 3%. The cells are then seeded between two layers of agar (Sigma, Belgium) and in 35 mm Petri dishes (Life Technologies, Belgium). The base layer is made up of a 0.5% solution of agar and the top layer is made up of a 0.3% solution of agar. The cupules are then positioned and held in an incubator at 37° C. and 5% of CO2. […] After treatment, the cupules are kept in the incubator for 21 days. It is advisable to examine, during the course of the experiment, the appearance and the increase of the cellular colonies. If after 10 days, no colony appears or is developing, the experiment must be repeated. In the contrary case, on the 21st day, 100 μl of an MTT solution (3-(4,5-dimethylthiazol-2-yl)-2,5 diphenyl tetrazolium bromide; Sigma, Belgium) dissolved in the RPMI culture medium (Roswell park Memorial Institute, Life Technologies, Belgium), at the concentration of 1 mg/ml are deposited on the top layer of the group of cupules. The cells are kept in contact with this solution for a minimum of 3 hours at 37° C.
Using an inverted microscope at low magnification, the number of clones whose surface area is greater thar. 100 μm^2 is determined for the group of cupules representing all the different experimental conditions. Then, for each of these experimental conditions, the mean number of cellular colonies±the standard error on the mean (ESM) is calculated.
The mean number of cellular colonies determined for each experimental condition is expressed as a percentage in relation to the control condition made equal to 100%.

Assay [5] relates to RARβ-ERcassette. Kind of assay: Transactivation, chimerical receptor RARβ-ERcassette (HeLa). Format: cell-based. As to conditions: TTNPB 10^-8 M = 100.
Description: as §1, §2

In assay [6] the test system is AP-1, MTLN lineage (MCF-7). Nature of the assay: Anti-AP-1 effect, MTLN lineage activated by TPA. The class given is cell-based, human. As to conditions: TPA-activated MTLN cells. Here is the method:
as §4
The anti-factor AP-1 transrepressor effect of retinoids is determined using the MTLN lineage, coming from MCF-7 cells transfected in a stable fashion by a vector p(TRE)3 -tk-Luc which places the expression of the gene of luciferase under the control of […]. TPA activates the AP-1 complex formed from proteins of the family of nuclear proto-oncogenes (c-Jun and c-Fos). […] The experiments are made with the MTLN cells activated by 10^-7 M TPA.
The effect of the compounds on the MTLN cells activated by 10^-7 M TPA is expressed as a percentage. […] The inhibitive properties of the products are calculated after deduction of the base activity of the cells. The percentages reported correspond to a range of inhibitions determined from several experiments.

Assay [7] relates to Gal4-RARγ. Nature of the assay: Transactivation, chimerical receptor Gal4-RARγ (transitory transfection of HeLa). The class given is cell-based. As to conditions: 100% = TTNPB 10^-8 M.
For assay [8], the system named is MCF-7 cells. Kind of assay: Effect on oestrogen-induced proliferation of MCF-7 cells. Format: cell-based, human. Conditions: estradiol 10^-9 M.
Description: MCF-7 cells and HeLa are cultivated in DMFM with phenol red to which 5% foetal calf serum is added. […] The experimental tests are carried out in DMEM without phenol red to which foetal calf serum treated with dextran carbon is added at 3%. […] The experiments using the different retinoids are carried out sheltered from the light so as to avoid any isomerisation.
The test system of assay [9] is Gal4-RARβ. Nature of the assay: Transactivation, chimerical receptor Gal4-RARβ (transitory transfection of HeLa). Format: cell-based. Conditions: 100% = TTNPB 10^-8 M.
In assay [10] the test system is T-47D cells. Nature of the assay: Effect on oestrogen-induced proliferation of T-47D cells. The class given is cell-based, human. As to conditions: estradiol 10^-9 M. On the procedure: as §3
So as to test the anti-proliferation effect of the retinoids, growth experiments under oestrogenic conditions were carried out on cells MCF-7 and T-47D. These are the human oestrogen-dependent mammary cancer cells which express the receptor to RE oestrogens. The effect of the molecules is evaluated after 7 days of culture in oestrogenic conditions (estradiol 10^-9 M) by dosing the cellular DNA. The cells are distributed in 24 well plates at a density of 2×10^4 cells per well. The tests with the different retinoids are carried out in triplicate and the culture medium is changed after 4 days of growth.

For the molecule `C=C(c1ccc(C(=O)O)cc1)c1cc2c(cc1C)C(C)(C)CCC2(C)C` [LGD1069, reference compound], the “RAR-ERcassette profile (in words)” value in assay [1] is “transcriptional power appears higher notably through the RARβ-ERcassette; also recorded: permits a co-activation of RAR and RXR, bringing about an over-activation of the hetero-dimer in comparison with the specific RAR activation of TTNPB”. For the same molecule, the “effect on cellular increase, A549 (in words)” value in assay [2] is “induces a stimulation of the proliferation of the A549 cells at 10^-6 M and 10^-8 M”. In addition, the “HRL+N transactivation (in words)” value in assay [3] was “induce a stronger transactivation with the HRL+N cells; also recorded: behaves as a panagonistic molecule”. In addition, in [4], the “effect on growth of cellular colonies (in words)” value is “strongly and significantly inhibits the growth of cellular colonies of the T-47D lineage”. Moreover, the “RAR-ERcassette RARβ transactivation” value in assay [5] (10^-6 M) is given as 237%; in assay [5] (10^-7 M) it was 194%. The “anti-AP-1 effect (in words)” value in assay [6] is reported as “causes an inhibition of the AP-1 route; also recorded: the most effective compound tested in this model”. Besides, the figures for the “GAL4-RAR RARγ transactivation” value in [7] (10^-6 M), in assay [7] (10^-7 M) and in [7] (10^-8 M) were 29%, 8% and 1%, respectively. The “effect on oestrogen-induced growth, MCF-7 (in words)” value in [8] is “exerts no effect whatsoever on the growth of MCF-7 and T-47D cells in oestrogenic conditions”. Besides, the results for the “GAL4-RAR RARβ transactivation” value in assay [9] (10^-7 M) and in assay [9] (10^-8 M) were 5% and 1%, respectively. In [10], the “effect on oestrogen-induced growth, T-47D (in words)” value was “exerts no effect whatsoever on the growth of MCF-7 and T-47D cells in oestrogenic conditions”.
